Reference: patent US20070244110A1, “Treatment of prostate cancer, melanoma or hepatic cancer” (ZENYAKU KOGYO KABUSHIKI KAISHA, priority 2006, published 2007)

Key:
[1] = test system: Hepatoma HepG2 cells; test: In vitro anti-tumor experiment, growth inhibition of HepG2 cells; format: cell-based; conditions: Homo sapiens; HepG2, 72 hours incubation
Experimental: (§1) Hepatoma HepG2 cells were cultured in a MEM culture medium (containing 10% fetal bovine serum, 25 mM HEPES and 0.1 mg/ml kanamycin) under conditions of 5% carbon dioxide at 37° C. HepG2 cells were harvested as single free cells by a tripsin/EDTA treatment in the logarithmic growth phase, and a cell suspension solution consisted of 2×10^4 cells per ml was prepared with MEM culture medium (containing 10% fetal bovine serum, 25 mM HEPES and 0.1 mg/ml kanamycin). The test compound was dissolved in DMSO, then diluted with RPMI1640 culture medium (containing 10% fetal bovine serum, 25 mM HEPES, 0.1 mg/ml kanamycin), and adjusted to a concentration of 2.0×10^−9 to 2.0×10^−3 M.
(§2) 0.1 ml of the cell suspension solution was put in each well of a 96-well plate, then cultured for 24 hours to make the cells adhere to the microplates, and 0.1 ml of the test compound was added in each well and incubated for 72 hours under conditions of 5% carbon dioxide at 37° C. The 50% growth inhibition concentration (GI50 value μM) was computed from the growth inhibition rates at various test sample concentrations, and the results are shown in Table 1.

[2] = test system: B16F10 melanoma cells; test: In vitro anti-tumor experiment, growth inhibition of B16F10 cells; format: cell-based; conditions: Mus musculus, B16-F10; B16F10, 72 hours incubation
Experimental: as §1, §2
(§3) When using cells other than HepG2 cells, the following culture media were used instead of the MEM culture medium, and the following single cell suspensions were prepared with the following media:
RPMI1640 culture medium containing 10% fetal bovine serum, 1×10^4 cell suspension

[3] = test system: PC-3 prostate cancer cells; test: In vitro anti-tumor experiment, growth inhibition of PC-3 cells; format: cell-based; conditions: Homo sapiens; PC-3, 72 hours incubation
Experimental: as §1, §2, §3
PC-3 prostate cancer cells:
F12K culture medium containing 10% fetal bovine serum, 2×10^4 cell suspension

melting point: 238 °C (dec.) | GI50 [1]: 260 nM | GI50 [2]: 270 nM | GI50 [3]: 100 nM
Structure (SMILES): CC1(C)CN(c2nc(N3CCOCC3)nc(-n3c(C(F)F)nc4c(Cl)cc(N)cc43)n2)CCO1 [Compound 12, 2-(6-amino-4-chloro-2-difluoromethylbenzimidazol-1-yl)-4-(2,2-dimethylmorpholino)-6-morpholino-1,3,5-triazine]
